The record followed here is patent US20190292189A1, “LIM KINASE INHIBITORS” (VIRONGY, LLC, priority 2016, published 2019).

A short description of series [1]: Plasma pharmacokinetics studies on rats. The conditions noted are these: rats. How it is done: In vivo pharmacokinetics (PK) studies were conducted for selected compounds during the whole optimization at various stages in order to identify structural elements that are favorable for in vivo applications, and/or to evaluate the feasibility of optimized Limk inhibitors for animal studies.

Series [2] concerns PC-3 cells. Description: In vitro migration (wound closure) assay in PC-3 cells. The format is cell-based. The conditions noted are these: Homo sapiens, PC-3, 24 hours, compared to the control, read-out: inhibition of migration of PC-3 cells. How it is done: PC3 cells were cultured to confluence at >90% in 6 well culture dishes in 10% FBS RPMI1640 media the day before the assay. Lines were drawn with a marker on the bottom of the dishes. Using a sterile 1 mL pipet tip, the dishes were scratched three separate wounds through the cells moving perpendicular to the line drawn in the step above. The cells were rinsed with PBS twice very gently and added the RPMI1640 media, and the dishes were taken pictures using phase contrast under Leica DMI3000B microscope.

The target of series [3] is P450 2C9 (Homo sapiens, UniProt P11712). Briefly: P450 inhibition at 10 μM. The format is in vitro ADME.
Sequence of P450 2C9 (P11712 whole entry): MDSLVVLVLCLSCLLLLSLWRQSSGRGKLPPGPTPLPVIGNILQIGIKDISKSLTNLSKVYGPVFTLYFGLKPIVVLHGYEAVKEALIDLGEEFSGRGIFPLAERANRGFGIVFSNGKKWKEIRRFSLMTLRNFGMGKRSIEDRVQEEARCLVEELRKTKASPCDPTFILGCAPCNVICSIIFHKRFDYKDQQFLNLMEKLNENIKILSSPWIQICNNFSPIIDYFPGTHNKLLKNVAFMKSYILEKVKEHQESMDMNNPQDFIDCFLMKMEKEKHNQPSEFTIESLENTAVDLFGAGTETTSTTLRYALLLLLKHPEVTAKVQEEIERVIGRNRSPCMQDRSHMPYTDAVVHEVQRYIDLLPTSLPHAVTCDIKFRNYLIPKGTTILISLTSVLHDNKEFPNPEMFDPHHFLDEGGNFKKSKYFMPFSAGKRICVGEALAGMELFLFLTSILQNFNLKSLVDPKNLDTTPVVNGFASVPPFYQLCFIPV
Series [4] addresses ROCK-I (Homo sapiens, UniProt Q13464). Description: ROCK-I biochemical counter-screen. To be noted: Table 6; read-out: Biochemical Inhibition IC50 (nM) ROCK-I.
For series [5], the system named is cofilin phosphorylation in A7r5 cells. Description: In-cell Western assay of cofilin phosphorylation in A7r5 cells. The format is cell-based. The conditions noted are these: A7R5, A7r5 cells; read-out: Cofilin Phosphorylation In A7r5 Cells (IC50). Here is the method:
A7r5 (15,000 cells/well) were plated in a clear-bottomed Packard View black 96-well plate in 100 μl of 10% FBS DMEM:F12 medium and were allowed to attach overnight. The next day, the cells were serum starved in 1% FBS DMEM medium for 2 hr and then treated with the compounds for 1 hr. […] Next day, they were washed twice with PBS-0.1% Tween 20 (PBST) washing solution for 5 min each at room temperature on the orbital shaker, followed by one wash with Licor Blocking Buffer containing 0.05% Tween-20 for 5 min on the shaker at RT. The cells were then incubated with secondary antibody goat anti-rabbit IR800 (1:500 dilution) for 1 hr at RT in the dark (covered the plate with foil) in Licor blocking buffer-containing Tween-20. Following this, cells were washed twice with PBST for 5 min each at room temperature and then once with Licor blocking buffer-containing 0.05% Tween-20. The wells were then incubated with ToPro 3 stain (nucleic acid staining), diluted 1:4000 in Licor blocking buffer or Licor blocking buffer with 0.05% Tween-20 for 30 min at room temperature in the dark. Finally the plates were washed twice with PBS and analyzed using the Odyssey LICOR Infrared Scanner.

Series [6] has as its target ROCK-II (Homo sapiens, UniProt O75116). Briefly: ROCK-II biochemical counter-screen. The conditions noted are these: read-out: ROCK-II IC50.
Series [7] deals with resting CD4 T cells. Briefly: Surface staining of CD25 and CD69 (T cell activation). The format is cell-based, human. To be noted: CD3/CD28 beads.
Series [8] has as its target T1, PKN1/PRK1 (Homo sapiens, UniProt Q16512).
T1 construct: purchased Reaction Biology Corporation
Briefly: Kinase profiling at 1 μM (Reaction Biology). To be noted: ATP 10 μM. The format is biochemical. Here is the method:
(§1) Profiling was carried out at Reaction Biology Corporation following a protocol described at its website: http://www.reactionbiology.com/webapps/site/. The % data were the average from two determinations. ATP concentration used: 10 μM; Staurosporine was used as the positive control.
(§2) Biochemical assays for all Limk inhibitors and kinase profiling were carried out in Reaction Biology Corporation and followed the protocols described on its website. […] Compounds were tested at 1 μM with duplicate experiments in profiling assays. […] Reactions were carried out at 10 μM ATP, 1 μM substrate cofilin, and 50 nM Limk1 (final concentrations).

Series [9] addresses T2, EPHA3 (Homo sapiens, UniProt P29320).
T2 construct: purchased Reaction Biology Corporation
Description: Kinase profiling at 1 μM (Reaction Biology). The format is biochemical. To be noted: ATP 10 μM. Here is the method: as §1, §2

For series [10], the target named is T3, NEK1 (Homo sapiens, UniProt Q96PY6).
T3 construct: purchased Reaction Biology Corporation
Description: Kinase profiling at 1 μM (Reaction Biology). The format is biochemical. The conditions noted are these: ATP 10 μM. How it is done: as §1, §2

The target of series [11] is T4, IKKe/IKBKE (Homo sapiens, UniProt Q14164).
T4 construct: purchased Reaction Biology Corporation
T4 sequence (Q14164 whole entry): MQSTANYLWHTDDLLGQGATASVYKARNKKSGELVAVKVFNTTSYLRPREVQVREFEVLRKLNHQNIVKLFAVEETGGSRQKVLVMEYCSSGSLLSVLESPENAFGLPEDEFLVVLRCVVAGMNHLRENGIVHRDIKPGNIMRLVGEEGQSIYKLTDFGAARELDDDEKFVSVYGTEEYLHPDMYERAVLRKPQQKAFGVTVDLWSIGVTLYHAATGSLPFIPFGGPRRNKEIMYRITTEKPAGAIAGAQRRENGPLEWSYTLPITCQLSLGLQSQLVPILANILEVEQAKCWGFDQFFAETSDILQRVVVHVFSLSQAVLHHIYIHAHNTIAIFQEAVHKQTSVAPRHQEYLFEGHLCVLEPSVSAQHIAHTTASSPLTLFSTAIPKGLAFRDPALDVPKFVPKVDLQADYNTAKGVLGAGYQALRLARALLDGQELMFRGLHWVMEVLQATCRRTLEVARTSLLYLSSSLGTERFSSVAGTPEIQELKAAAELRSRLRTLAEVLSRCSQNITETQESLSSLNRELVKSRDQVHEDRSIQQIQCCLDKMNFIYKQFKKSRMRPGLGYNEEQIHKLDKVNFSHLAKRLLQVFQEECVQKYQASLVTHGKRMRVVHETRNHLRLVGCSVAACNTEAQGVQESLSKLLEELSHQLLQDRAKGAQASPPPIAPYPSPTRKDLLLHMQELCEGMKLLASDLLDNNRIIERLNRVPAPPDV
Description: Kinase profiling at 1 μM (Reaction Biology). The format is biochemical. The conditions noted are these: ATP 10 μM. Here is the method: as §1, §2

Series [12] addresses T5, ROCK2 (Homo sapiens, UniProt O75116).
T5 construct: purchased Reaction Biology Corporation
Briefly: Kinase profiling at 1 μM (Reaction Biology). The format is biochemical. To be noted: ATP 10 μM. Here is the method: as §1, §2

The target of series [13] is T6, IKKb/IKBKB (Homo sapiens, UniProt O14920).
T6 construct: purchased Reaction Biology Corporation
Description: Kinase profiling at 1 μM (Reaction Biology). To be noted: ATP 10 μM. The format is biochemical. Here is the method:
as §1, §2

Series [14] deals with T7, PDGFRb (Homo sapiens, UniProt P09619).
T7 construct: purchased Reaction Biology Corporation
Description: Kinase profiling at 1 μM (Reaction Biology). To be noted: ATP 10 μM. The format is biochemical. How it is done: as §1, §2

Series [15] addresses T8, ABL1 (Homo sapiens, UniProt P00519).
T8 construct: purchased Reaction Biology Corporation
Description: Kinase profiling at 1 μM (Reaction Biology). The format is biochemical. To be noted: ATP 10 μM. How it is done: as §1, §2

Series [16] has as its target T9, ZIPK/DAPK3 (Homo sapiens, UniProt O43293).
T9 construct: purchased Reaction Biology Corporation
Briefly: Kinase profiling at 1 μM (Reaction Biology). The format is biochemical. To be noted: ATP 10 μM. Here is the method: as §1, §2

In series [17] the target is T10, p70S6K/RPS6KB1 (Homo sapiens, UniProt P23443).
T10 construct: purchased Reaction Biology Corporation
Description: Kinase profiling at 1 μM (Reaction Biology). To be noted: ATP 10 μM. The format is biochemical. How it is done:
as §1, §2

The target of series [18] is T11, FLT3 (Homo sapiens, UniProt P36888).
T11 construct: purchased Reaction Biology Corporation
T11 sequence (P36888 27-993): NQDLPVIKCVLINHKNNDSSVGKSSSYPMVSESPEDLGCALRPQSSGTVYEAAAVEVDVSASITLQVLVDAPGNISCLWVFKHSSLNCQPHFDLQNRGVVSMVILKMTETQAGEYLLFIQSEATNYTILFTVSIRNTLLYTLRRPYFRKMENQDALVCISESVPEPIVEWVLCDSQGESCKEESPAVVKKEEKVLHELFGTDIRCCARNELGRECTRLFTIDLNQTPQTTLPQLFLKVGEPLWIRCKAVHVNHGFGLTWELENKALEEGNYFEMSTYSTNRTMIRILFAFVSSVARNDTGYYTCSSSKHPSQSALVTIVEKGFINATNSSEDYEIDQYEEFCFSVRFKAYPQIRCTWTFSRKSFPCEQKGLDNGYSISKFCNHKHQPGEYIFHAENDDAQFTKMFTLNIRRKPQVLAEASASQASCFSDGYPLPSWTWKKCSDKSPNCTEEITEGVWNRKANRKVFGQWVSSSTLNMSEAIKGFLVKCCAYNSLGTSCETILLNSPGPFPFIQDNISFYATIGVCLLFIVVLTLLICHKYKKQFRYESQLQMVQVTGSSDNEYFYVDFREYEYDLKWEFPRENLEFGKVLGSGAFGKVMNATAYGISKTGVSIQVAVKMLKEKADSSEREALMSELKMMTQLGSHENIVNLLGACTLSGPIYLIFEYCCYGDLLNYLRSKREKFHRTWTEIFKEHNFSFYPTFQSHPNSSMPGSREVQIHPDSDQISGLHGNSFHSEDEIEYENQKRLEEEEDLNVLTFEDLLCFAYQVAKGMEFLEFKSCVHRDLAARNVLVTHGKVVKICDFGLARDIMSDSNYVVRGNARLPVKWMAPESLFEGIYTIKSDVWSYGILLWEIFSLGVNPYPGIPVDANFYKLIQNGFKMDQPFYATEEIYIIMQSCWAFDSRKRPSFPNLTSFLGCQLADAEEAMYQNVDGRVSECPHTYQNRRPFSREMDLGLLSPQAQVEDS
Description: Kinase profiling at 1 μM (Reaction Biology). The format is biochemical. The conditions noted are these: ATP 10 μM. How it is done: as §1, §2

Series [19] concerns the target T12, ALK (Homo sapiens, UniProt Q9UM73).
T12 construct: purchased Reaction Biology Corporation
Briefly: Kinase profiling at 1 μM (Reaction Biology). To be noted: ATP 10 μM. The format is biochemical. How it is done:
as §1, §2

The target of series [20] is T13, AKT2 (Homo sapiens, UniProt P31751).
T13 construct: purchased Reaction Biology Corporation
Briefly: Kinase profiling at 1 μM (Reaction Biology). The format is biochemical. The conditions noted are these: ATP 10 μM. How it is done:
as §1, §2

Series [21] deals with T14, PIM2 (Homo sapiens, UniProt Q9P1W9).
T14 construct: purchased Reaction Biology Corporation
T14 sequence (Q9P1W9 whole entry): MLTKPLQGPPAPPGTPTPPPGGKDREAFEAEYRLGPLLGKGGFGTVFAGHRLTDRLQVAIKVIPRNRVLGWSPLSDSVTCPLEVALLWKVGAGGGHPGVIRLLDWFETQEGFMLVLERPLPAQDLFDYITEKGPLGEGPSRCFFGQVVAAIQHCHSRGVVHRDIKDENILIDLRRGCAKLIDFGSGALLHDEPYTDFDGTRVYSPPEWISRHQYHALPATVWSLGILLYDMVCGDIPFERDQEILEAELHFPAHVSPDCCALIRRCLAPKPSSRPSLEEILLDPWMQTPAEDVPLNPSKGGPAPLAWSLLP
Description: Kinase profiling at 1 μM (Reaction Biology). The format is biochemical. The conditions noted are these: ATP 10 μM. Here is the method:
as §1, §2

Series [22] addresses T15, WEE1 (Homo sapiens, UniProt P30291).
T15 construct: purchased Reaction Biology Corporation
Description: Kinase profiling at 1 μM (Reaction Biology). The format is biochemical. The conditions noted are these: ATP 10 μM. How it is done: as §1, §2

Series [23] has as its target T16, CK2a (Homo sapiens, UniProt P68400).
T16 construct: purchased Reaction Biology Corporation
Description: Kinase profiling at 1 μM (Reaction Biology). The format is biochemical. The conditions noted are these: ATP 10 μM. Here is the method:
as §1, §2

In series [24] the test system is HIV-1 viral entry in CEM-SS T cells. Briefly: Viral entry assays (BlaM-Vpr, Nef-luciferase). The conditions noted are these: HIV-1 Vpr-β-lactamase or Nef-luciferase tagged virions. The format is cell-based.
In series [25] the test system is HIV-1(VSVG). The format is cell-based.

T15 sequence (P30291 whole entry): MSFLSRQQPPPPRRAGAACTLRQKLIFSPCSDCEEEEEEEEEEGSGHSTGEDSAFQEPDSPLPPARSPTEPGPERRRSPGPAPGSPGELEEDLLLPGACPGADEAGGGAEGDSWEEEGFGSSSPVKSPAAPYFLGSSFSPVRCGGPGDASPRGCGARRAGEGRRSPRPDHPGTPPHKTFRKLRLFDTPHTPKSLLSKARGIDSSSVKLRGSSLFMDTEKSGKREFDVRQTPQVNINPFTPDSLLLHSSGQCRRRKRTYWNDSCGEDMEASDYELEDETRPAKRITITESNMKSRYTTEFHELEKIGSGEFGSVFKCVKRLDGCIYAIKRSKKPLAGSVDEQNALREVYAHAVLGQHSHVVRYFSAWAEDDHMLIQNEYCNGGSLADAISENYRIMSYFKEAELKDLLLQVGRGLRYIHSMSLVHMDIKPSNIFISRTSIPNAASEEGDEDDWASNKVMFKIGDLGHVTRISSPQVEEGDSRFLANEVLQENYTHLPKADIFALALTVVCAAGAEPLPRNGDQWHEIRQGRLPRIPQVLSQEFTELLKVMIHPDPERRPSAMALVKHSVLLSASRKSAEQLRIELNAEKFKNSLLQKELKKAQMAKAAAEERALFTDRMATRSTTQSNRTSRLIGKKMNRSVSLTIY
Sequence of ROCK-I (Q13464 whole entry, species assumed): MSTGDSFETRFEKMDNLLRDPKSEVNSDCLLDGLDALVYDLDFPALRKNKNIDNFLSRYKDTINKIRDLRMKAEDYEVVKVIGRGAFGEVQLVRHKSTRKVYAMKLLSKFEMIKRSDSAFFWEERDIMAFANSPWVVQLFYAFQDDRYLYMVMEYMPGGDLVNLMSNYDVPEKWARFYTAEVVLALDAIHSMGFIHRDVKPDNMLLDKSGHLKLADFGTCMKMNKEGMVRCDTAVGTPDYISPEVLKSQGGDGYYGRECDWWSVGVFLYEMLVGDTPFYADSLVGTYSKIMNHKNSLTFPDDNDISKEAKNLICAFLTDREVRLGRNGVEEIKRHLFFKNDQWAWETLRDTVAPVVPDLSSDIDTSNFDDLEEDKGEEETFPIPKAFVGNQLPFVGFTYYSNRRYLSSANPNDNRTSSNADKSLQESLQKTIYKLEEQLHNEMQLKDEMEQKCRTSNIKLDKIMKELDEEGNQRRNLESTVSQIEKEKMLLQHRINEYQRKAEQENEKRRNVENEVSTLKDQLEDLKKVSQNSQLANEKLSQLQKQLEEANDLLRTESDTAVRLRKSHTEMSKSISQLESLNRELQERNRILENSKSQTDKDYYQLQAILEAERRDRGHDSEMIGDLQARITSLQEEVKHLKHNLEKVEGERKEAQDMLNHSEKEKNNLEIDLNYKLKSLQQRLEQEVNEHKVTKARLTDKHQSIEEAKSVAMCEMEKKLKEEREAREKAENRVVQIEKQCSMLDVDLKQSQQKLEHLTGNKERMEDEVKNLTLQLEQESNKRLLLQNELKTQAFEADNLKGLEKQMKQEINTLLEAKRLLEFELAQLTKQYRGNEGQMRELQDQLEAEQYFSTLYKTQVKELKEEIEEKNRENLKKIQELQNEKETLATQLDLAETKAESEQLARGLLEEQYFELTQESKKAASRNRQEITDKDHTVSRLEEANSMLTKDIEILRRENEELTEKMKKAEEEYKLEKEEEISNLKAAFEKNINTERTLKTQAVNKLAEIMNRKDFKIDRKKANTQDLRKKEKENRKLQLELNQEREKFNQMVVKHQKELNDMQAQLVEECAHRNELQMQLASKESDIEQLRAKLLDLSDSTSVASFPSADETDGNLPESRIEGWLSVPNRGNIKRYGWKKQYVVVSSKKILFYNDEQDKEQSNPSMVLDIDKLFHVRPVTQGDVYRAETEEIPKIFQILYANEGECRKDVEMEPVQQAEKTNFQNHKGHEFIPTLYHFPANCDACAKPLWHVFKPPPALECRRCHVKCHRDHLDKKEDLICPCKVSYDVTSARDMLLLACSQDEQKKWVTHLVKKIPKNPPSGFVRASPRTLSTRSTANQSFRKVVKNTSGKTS
T9 sequence (O43293 whole entry): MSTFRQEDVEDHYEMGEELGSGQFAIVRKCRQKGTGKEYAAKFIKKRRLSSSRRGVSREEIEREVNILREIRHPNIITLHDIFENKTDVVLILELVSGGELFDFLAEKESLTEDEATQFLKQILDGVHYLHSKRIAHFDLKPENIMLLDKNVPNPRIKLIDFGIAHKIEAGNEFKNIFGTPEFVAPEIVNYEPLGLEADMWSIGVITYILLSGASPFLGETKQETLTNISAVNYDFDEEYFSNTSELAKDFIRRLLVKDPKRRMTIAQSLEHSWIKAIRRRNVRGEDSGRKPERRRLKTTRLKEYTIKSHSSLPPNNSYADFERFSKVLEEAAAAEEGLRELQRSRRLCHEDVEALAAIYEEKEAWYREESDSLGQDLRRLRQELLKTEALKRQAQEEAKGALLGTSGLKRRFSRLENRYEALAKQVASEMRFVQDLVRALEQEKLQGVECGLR

As for `Cc1c[nH]c2ncnc(-c3ccc(NC(=O)N(CCO)c4ccccc4)cc3)c12` [Compound 18b, 1-(2-Hydroxyethyl)-3-(4-(5-methyl-7H-pyrrolo[2,3-d]pyrimidin-4-yl)phenyl)-1-phenylurea], in [1] (iv dosing 1 mg/kg), the “AUC (iv)” value came out at 8.4 µM·h, the “Cl (iv)” value is recorded as 5.2 mL/min/kg, the “T1/2 (iv)” value amounted to 2.2 h and the “Yd (iv)” value was found to be 0.4 L/kg. In addition, the “F (%) (po)” value in series [1] (po dosing 2 mg/kg) was determined as 36%. Moreover, the Cmax in series [1] (read-out: Cmax (iv), iv dosing 1 mg/kg) came out at 7.7 µM. For the same compound, the inhibition at 0.1 µM in series [2] (0.1 μM) worked out at 16.5%. Further, the inhibition at 1 µM in series [2] (1 μM) was determined as 74%. Moreover, the inhibition at 10 µM in series [2] (10 μM) is 77.5%. Also, the “P450 % inh. at 10 μM 2C9” value in series [3] is 14%. Moreover, the concentration for half-maximal inhibition (IC50) in series [4] came out at 5540 nM. Besides, the IC50 in series [5] worked out at 0.47 µM. Also, in series [6], the half-inhibitory concentration (IC50) was determined as 6.57 µM.

With `COC(=O)c1ccc2[nH]c(C3CCN(c4ncnc5[nH]cc(Cl)c45)CC3)nc2c1` [Compound R10015, Methyl 2-(1-(5-chloro-7H-pyrrolo[2,3-d]pyrimidin-4-yl)piperidin-4-yl)-1Hbenzo[d]imidazole-5-carboxylate], the “T cell activation (CD25 and CD69 surface staining)” value in series [7] is “did not inhibit T cell activation”. Moreover, the activity at 1 µM in series [8] turned out to be 58.6%; in series [9] it was 91.1%; in [10], 67.2%; in [11], 84.1%; in [12], 29.5%; in series [13], 85.1%. Also, the activity at 1 µM in series [14] came to 78.6%; in series [15], 89.2%; in series [16] it was 98.5%; in [17], 10%; in [18], 32.2%; in [19], 95.5%. Moreover, the activity at 1 µM was found to be 73.1% in series [20], 97.6% in [21], 97.2% in series [22] and 94.2% in [23]. Further, in series [24], the viral entry result was “did not significantly inhibit”. The “inhibition of VSVG pseudotyped HIV” value in [25] is listed as “did not inhibit”.
